Data published in patent US20210052705A1, “METHOD OF DRUG […] FOR PTH, PTHrP AND RELATED PEPTIDES” (Radius Health, Inc., priority 2011, published 2021).
Where two headings read alike, the source gives them in different places.

Tests used:
[1] = male, Sprague Dawley, rat, in vivo
[2] = parameters: AUC5-90, Mean: unit not given beside the values; details: Sprague-Dawley, rat, in vivo, 13.6 ug
[3] = female, human, in vivo
in vivo = details: Sprague-Dawley, rat, 13.6 ug

- AUC(0-t) ([1]; 20 ug/kg): 166 ng·min/mL
- Cmax ([1]; 20 ug/kg): 7.15 ng/mL
- Cmax (20 μg/kg Dose) ([1]; 20 ug/kg): 7.15 ng/mL
- T1/2 ([1]; 20 ug/kg): 14 min
- Tmax ([1]; 20 ug/kg): 15 min
- Concentrations of Peptide in Serum ([1]; 26.2 ug, 5 min): 45.29 ng/mL
- Concentrations of Peptide in Serum ([1]; 26.2 ug, 0.25 h): 59.72 ng/mL
- Concentrations of Peptide in Serum ([1]; 26.2 ug, 0.5 h): 20.15 ng/mL
- Concentrations of Peptide in Serum ([1]; 26.2 ug, 0.75 h): 11.63 ng/mL
- T1/2 ([1]; 27 ug): 26 min
- Tmax ([1]; 27 ug): 15 min
- Concentrations of Peptide in Serum ([1]; 27 ug, 5 min): 21.34 ng/mL
- Concentrations of Peptide in Serum ([1]; 27 ug, 0.25 h): 31.08 ng/mL
- Concentrations of Peptide in Serum ([1]; 27 ug, 0.5 h): 12.43 ng/mL
- Concentrations of Peptide in Serum ([1]; 27 ug, 0.75 h): 6.99 ng/mL
- Concentrations of Peptide in Serum ([1]; 32 ug, 5 min): 37.76 ng/mL
- Concentrations of Peptide in Serum ([1]; 32 ug, 10 min): 29.94 ng/mL
- Concentrations of Peptide in Serum ([1]; 32 ug, 0.25 h): 37.48 ng/mL
- Concentrations of Peptide in Serum ([1]; 32 ug, 0.5 h): 15.99 ng/mL
- Concentrations of Peptide in Serum ([1]; 32 ug, 0.75 h): 8.39 ng/mL
- AUC(0-t) ([1]; 141.9 ug): 5199 ng·min/mL
- Cmax ([1]; 141.9 ug): 153.74 ng/mL
- Tmax ([1]; 141.9 ug): 15 min
- % F ([1]; 386.5 ug): 24%
- AUC(0-t) ([1]; 386.5 ug): 6899 ng·min/mL
- Cmax ([1]; 386.5 ug): 179.02 ng/mL
- T1/2 ([1]; 386.5 ug): 16 min
- Tmax ([1]; 386.5 ug): 15 min
- AUC5-90, Mean [2]: 282
- Cmax, Mean [2]: 12.3 ng/mL
- Tmax, Mean [2]: 9 min
- Concentration in Serum at 5 min, Mean ([2]; 5 min): 11.8 ng/mL
- Concentration in Serum at 15 min, Mean ([2]; 0.25 h): 10.5 ng/mL
- Concentration in Serum at 30 min, Mean ([2]; 0.5 h): 7.1 ng/mL
- AUC0-inf, LS Mean ([3]; 150 ug): 0.15742 ng·h/mL
- AUC0-t, LS Mean ([3]; 150 ug): 0.14285 ng·h/mL
- Cmax, LS Mean ([3]; 150 ug): 0.31197 ng/mL
- AUC0-inf, LS Mean ([3]; 200 ug): 0.19016 ng·h/mL
- AUC0-t, LS Mean ([3]; 200 ug): 0.16679 ng·h/mL
- Cmax, LS Mean ([3]; 200 ug): 0.48945 ng/mL
- AUC (in vivo; AUC5-90, Mean): 3.68 ng·h/mL
- Cmax (in vivo; Cmax, Mean): 9.7 ng/mL
- level at 5 min (in vivo; Concentration in Serum at 5 min, Mean): 8.8 ng/mL
- level at 0.25 h (in vivo; Concentration in Serum at 15 min, Mean): 8.6 ng/mL
- level at 0.5 h (in vivo; Concentration in Serum at 30 min, Mean): 6 ng/mL
- Tmax (in vivo; Tmax, Mean): 9 min
Compound: CC[C@H](C)[C@H](NC(=O)[C@H](CO)NC(=O)[C@H](CCCCN)NC(=O)CNC(=O)[C@H](CCCCN)NC(=O)[C@H](CC(=O)O)NC(=O)[C@H](Cc1cnc[nH]1)NC(=O)[C@H](CC(C)C)NC(=O)[C@H](CC(C)C)NC(=O)[C@H](CCC(N)=O)NC(=O)[C@H](Cc1cnc[nH]1)NC(=O)[C@H](CCC(=O)O)NC(=O)[C@H](CO)NC(=O)[C@@H](NC(=O)[C@H](C)N)C(C)C)C(=O)N[C@@H](CCC(N)=O)C(=O)N[C@@H](CC(=O)O)C(=O)N[C@@H](CC(C)C)C(=O)N[C@@H](CCCNC(=N)N)C(=O)N[C@@H](CCCNC(=N)N)C(=O)N[C@@H](CCCNC(=N)N)C(=O)N[C@@H](CCC(=O)O)C(=O)N[C@@H](CC(C)C)C(=O)N[C@@H](CC(C)C)C(=O)N[C@@H](CCC(=O)O)C(=O)N[C@@H](CCCCN)C(=O)N[C@@H](CC(C)C)C(=O)N[C@@H](CC(C)C)C(=O)NC(C)(C)C(=O)N[C@@H](CCCCN)C(=O)N[C@@H](CC(C)C)C(=O)N[C@@H](Cc1cnc[nH]1)C(=O)N[C@H](C(=O)N[C@@H](C)C(N)=O)[C@@H](C)O [Peptide]
